Results from patent publication US20250049929A1, “NOVEL TETRAHYDROQUINOLINES AND PROTEOLYSIS TARGETING CHIMERA (PROTACS) COMPRISING THEM AS DEGRADERS OF SMARCA” (Boehringer Ingelheim International GmbH, priority 2021, published 2025).
Where two headings read alike, the source gives them in different places.

Columns and labels:
[1] = target: T1, SMARCA2BD (Homo sapiens, UniProt P51531); test: Binary SMARCA2 binding affinity determination (A2 binary): SMARCA2 SPR binding experiments
T1 construct: the SMARCA2BD prepared at 0.5-0.7 mg/mL in coupling buffer
Experimental: Binary SMARCA2 Binding Affinity Determination (A2 Binary [nM]):
SMARCA2 SPR Binding Experiments
SPR experiments were performed on Biacore 8K or T200 instruments (GE Healthcare). Immobilization of target protein was carried out at 25° C. on a CM5 chip using amine coupling (EDC/NHS, GE Healthcare) in HBS-P+ running buffer, containing 2 mM TCEP, pH 7.4. […] The surface was deactivated using 1 M ethanolamine.
All interaction experiments were performed at 6° C. in running buffer containing 20 mM TRIS, 150 mM potassium chloride, 2 mM magnesium chloride, 2 mM TCEP, 0.005% TWEEN 20, 1% dimethyl sulfoxide; pH 8.3. Sensorgrams from reference surfaces and blank injections were subtracted from the raw data prior to data analysis using Biacore T200 or Biacore 8K evaluation software. Sensorgrams recorded at different compound concentrations in multi-cycle experiments were fitted using a 1:1 interaction model, with a term for mass-transport included.

[2] = target: T2, SMARCA2 (Homo sapiens, UniProt P51531); test: SMARCA2 degradation analysis by imaging in RKO cells (DC50 A2); type: cell-based; conditions: tables 69, 70, 73, 76-78
T2 construct: endogenous in cells; host or cells: RKO cells (CRL-2577, ATCC)
Experimental: (§1) Determination of SMARCA2 and SMARCA4 Degradation (DC50 A2 and A4 [nM])
(§2) Protein Degradation Assays for SMARCA2 and SMARCA4
(§3) For degradation analysis by imaging, 1250 RKO cells (CRL-2577, ATCC) per well were seeded into 60 μL DMEM (Sigma Aldrich) supplemented with 10% FBS (Hyclone) in 384-well flat bottom plates (CellCarrier Ultra, Perkin Elmer) and incubated at 37° C. and 5% CO2 in a humidified atmosphere overnight. Compounds were added the next day using an Access Labcyte Workstation with a Labcyte Echo 550 or 555 acoustic dispenser and incubated with the cells for 4 or 24 h. Cells were fixed by adding 25 μL fixation buffer (7.4% formaldehyde (Sigma Aldrich F8775), 0.2% Triton TX100 (Sigma Aldrich F93443) in PBS) for 15 minutes at room temperature. After aspirating the fixing solution, the cells were washed once with 25 μL PBS and 25 μL of Blocking Buffer (10% Goat Serum in PBS) were added to each well and incubated for 30 minutes. Cells were washed with PBS and incubated with 20 μL mouse anti-Smarca4 (BRG1) antibody (Cell Signaling #52251) or rabbit anti-Smarca2 (BRM) antibody (Sigma Aldrich HPA029981) in blocking solution (PBS with 10% FCS) for ca. 2-4 h at RT. For detection of the nuclei, 25 μL of 5 μg/mL Hoechst 33342 (stock 10 mg/mL in H2O; Invitrogen H1399) were added together with Alexa Fluor 647 goat anti-mouse IgG (Invitrogen A-21235) or Alexa Fluor 488 goat anti-rabbit IgG (Invitrogen A-11034) in blocking solution and incubated for 60 min at RT. The cell layer was washed with 25 μL PBS, the wells were filled with 25 μL PBS and the plates sealed with an adhesive sheet. The mean intensity at 488 or 647 nm in the nucleus was measured using an Opera Phenix Plus High-Content Screening System (Perkin Elmer), values were normalized to the background and DMSO control and DC50 values were calculated and analyzed using a four-parametric logistic model.

[3] = target: T3, SMARCA4 (Homo sapiens, UniProt P51532); test: SMARCA4 degradation analysis by imaging in RKO cells (DC50 A4); type: cell-based; conditions: tables 69, 70, 73, 76-78
T3 construct: endogenous in cells; host or cells: RKO cells (CRL-2577, ATCC)
Experimental: as §1, §2, §3

[4] = binary SMARCA2 binding affinity, SPR at 6° C., pH 8.3, read-out: A2 binary

T3 sequence (P51532 whole entry): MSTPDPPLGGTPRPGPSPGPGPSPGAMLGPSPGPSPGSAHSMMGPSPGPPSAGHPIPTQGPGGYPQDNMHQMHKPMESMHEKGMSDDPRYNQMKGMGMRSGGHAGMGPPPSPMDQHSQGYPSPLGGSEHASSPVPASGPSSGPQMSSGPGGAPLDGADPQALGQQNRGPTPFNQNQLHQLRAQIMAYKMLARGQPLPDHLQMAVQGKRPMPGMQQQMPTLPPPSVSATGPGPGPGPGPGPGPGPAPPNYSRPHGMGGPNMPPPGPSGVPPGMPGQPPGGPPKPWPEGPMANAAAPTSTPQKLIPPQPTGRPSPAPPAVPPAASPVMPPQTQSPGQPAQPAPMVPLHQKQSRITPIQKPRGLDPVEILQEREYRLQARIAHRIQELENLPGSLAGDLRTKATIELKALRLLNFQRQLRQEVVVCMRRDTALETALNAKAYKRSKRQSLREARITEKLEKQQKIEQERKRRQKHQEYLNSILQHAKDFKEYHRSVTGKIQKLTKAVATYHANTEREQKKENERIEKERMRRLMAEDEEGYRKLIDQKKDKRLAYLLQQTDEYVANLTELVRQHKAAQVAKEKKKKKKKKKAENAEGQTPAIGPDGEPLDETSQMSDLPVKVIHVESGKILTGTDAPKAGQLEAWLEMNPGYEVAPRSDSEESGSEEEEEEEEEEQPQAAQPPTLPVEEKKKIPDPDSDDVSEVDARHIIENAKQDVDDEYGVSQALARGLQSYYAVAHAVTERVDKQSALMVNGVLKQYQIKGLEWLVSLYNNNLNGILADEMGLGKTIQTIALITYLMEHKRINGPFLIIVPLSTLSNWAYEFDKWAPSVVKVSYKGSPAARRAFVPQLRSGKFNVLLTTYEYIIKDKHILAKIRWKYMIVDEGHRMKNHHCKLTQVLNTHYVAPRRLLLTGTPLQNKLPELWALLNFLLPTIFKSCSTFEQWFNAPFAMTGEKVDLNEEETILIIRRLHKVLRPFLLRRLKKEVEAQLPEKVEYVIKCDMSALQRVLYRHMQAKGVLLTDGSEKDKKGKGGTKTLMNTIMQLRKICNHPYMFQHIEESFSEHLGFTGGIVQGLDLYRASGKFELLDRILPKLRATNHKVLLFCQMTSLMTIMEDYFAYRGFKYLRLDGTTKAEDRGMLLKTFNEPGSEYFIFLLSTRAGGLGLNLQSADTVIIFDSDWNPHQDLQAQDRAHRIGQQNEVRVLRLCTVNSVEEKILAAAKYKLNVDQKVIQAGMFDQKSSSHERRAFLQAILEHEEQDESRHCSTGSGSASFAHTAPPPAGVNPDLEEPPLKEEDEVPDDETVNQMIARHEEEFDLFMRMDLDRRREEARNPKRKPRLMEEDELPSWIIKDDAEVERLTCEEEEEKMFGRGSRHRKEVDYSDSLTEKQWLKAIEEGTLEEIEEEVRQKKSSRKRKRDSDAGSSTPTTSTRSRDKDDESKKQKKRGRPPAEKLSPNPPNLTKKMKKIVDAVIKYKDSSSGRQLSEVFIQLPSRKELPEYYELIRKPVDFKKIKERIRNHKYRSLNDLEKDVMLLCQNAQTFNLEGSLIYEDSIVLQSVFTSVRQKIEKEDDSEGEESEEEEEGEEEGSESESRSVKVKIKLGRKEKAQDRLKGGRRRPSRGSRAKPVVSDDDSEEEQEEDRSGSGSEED
T2 sequence (P51531 whole entry): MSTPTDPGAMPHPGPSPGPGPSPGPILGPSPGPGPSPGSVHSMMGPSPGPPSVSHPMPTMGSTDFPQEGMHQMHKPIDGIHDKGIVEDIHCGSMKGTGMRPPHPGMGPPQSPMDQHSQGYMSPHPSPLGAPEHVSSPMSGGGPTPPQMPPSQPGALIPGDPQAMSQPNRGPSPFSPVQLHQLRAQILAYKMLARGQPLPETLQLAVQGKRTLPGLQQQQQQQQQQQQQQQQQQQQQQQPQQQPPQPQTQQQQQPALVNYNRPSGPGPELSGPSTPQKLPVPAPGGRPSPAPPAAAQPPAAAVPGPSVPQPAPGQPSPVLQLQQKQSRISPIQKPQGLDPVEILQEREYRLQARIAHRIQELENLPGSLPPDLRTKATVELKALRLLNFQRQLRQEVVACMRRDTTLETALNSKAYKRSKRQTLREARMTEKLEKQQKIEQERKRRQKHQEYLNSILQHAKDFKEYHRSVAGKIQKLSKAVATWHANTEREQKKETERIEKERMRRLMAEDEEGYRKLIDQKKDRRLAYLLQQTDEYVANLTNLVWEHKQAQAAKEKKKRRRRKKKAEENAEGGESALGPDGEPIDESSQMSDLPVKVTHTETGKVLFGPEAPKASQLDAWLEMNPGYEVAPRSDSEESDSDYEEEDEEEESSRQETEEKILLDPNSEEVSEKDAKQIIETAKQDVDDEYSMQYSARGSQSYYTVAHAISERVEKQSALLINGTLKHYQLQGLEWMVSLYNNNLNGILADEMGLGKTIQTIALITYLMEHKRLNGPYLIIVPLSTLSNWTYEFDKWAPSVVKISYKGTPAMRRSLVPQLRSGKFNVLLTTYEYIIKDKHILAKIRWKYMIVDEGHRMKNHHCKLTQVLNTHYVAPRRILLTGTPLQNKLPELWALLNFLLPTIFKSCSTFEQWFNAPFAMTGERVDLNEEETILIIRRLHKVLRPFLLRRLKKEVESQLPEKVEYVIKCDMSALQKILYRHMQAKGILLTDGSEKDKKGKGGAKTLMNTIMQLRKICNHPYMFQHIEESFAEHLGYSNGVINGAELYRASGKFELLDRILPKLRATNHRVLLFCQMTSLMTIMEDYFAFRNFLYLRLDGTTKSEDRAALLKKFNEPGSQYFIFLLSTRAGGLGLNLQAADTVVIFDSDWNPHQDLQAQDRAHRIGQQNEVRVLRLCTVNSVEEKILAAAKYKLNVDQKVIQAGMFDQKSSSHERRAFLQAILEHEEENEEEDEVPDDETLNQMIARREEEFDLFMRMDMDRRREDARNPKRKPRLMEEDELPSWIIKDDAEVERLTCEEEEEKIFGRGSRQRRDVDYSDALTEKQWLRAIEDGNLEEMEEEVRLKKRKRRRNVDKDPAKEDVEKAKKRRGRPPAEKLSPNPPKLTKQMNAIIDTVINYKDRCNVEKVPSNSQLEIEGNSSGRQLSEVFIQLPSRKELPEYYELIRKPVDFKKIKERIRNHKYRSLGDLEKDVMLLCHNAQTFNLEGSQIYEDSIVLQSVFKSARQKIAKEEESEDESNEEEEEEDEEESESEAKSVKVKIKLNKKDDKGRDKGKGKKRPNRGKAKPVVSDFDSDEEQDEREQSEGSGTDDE
T1 sequence (P51531 1373-1493 isoform P51531-2 limits assumed): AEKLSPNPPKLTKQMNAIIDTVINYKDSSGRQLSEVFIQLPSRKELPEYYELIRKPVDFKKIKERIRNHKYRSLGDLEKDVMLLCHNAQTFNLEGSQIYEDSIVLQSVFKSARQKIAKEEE

Q: How did the Kd [1] turn out when `O=c1nc2n(C3CCCC3)c3cc(C4CCNCC4)ccc3n2c2cccc(Br)c12` [Compound 28a, 4-bromo-7-cyclopentyl-9-(4-piperidyl)benzimidazolo[1,2-a]quinazolin-5-one] was run?
A: The Kd was 48 nM.

Q: `CCn1c2cc(C3CCNCC3)c(OCCOCCOC)cc2n2c3cccc(Br)c3c(=O)nc12` [Compound 28k] was tested. Which Kd [1, 4] did it give?
A: Its Kd is 45 nM.

Q: For `N[C@H]1CC[C@H](c2ccc3c(c2)n(C2CCCC2)c2nc(=O)c4c(Br)cccc4n32)CC1` [Compound 28m], which Kd [1, 4] is on record?
A: Its Kd is 29 nM.

Q: With `C[C@H]1CNCCN1c1ccc2c(c1)n(C1CCCC1)c1nc(=O)c3c(Br)cccc3n21` [Compound 28o] as the molecule, how does the Kd [1, 4] read?
A: The Kd was 40 nM.

Q: Which Kd [1, 4] does the source give for `C[C@@H]1CNCCN1c1ccc2c(c1)n(C1CCCC1)c1nc(=O)c3c(Br)cccc3n21` [Compound 28p] here?
A: The Kd was 55 nM.

Q: With `O=c1nc2n(C3CCCC3)c3cc(N4CCNCC4)ccc3n2c2cccc(Br)c12` [Compound 28r] as the molecule, how does the Kd [1, 4] read?
A: Its Kd is 44 nM.

Q: Which Kd [1, 4] does the source give for `O=c1nc2n(C3CCCC3)c3cc(N4C[C@@H]5C[C@H]4CN5)ccc3n2c2cccc(Br)c12` [Compound 28s] here?
A: The Kd was 70 nM.

Q: Which Kd [1, 4] does the source give for `O=c1nc2n(C3CCCC3)c3cc(C4CCNCC4)c(OC[C@@H]4CCCO4)cc3n2c2cccc(Br)c12` [Compound 28v] here?
A: Its Kd is 45 nM.

Q: With `COCCOCCOc1cc2c(cc1C1CCNCC1)n(C1CCCC1)c1nc(=O)c3c(Br)cccc3n21` [Compound 28y] as the molecule, how does the Kd [1, 4] read?
A: Its Kd is 50 nM.

Q: For `CC(C)(C)OC(=O)N1CCC(c2ccc3c(c2)n(C2CCCC2)c2nc(=O)c4c(N)cccc4n32)CC1` [Compound 30a], which Kd [1, 4] is on record?
A: The Kd was 541 nM.

Q: Which Kd [1, 4] does the source give for `CC(C)(C)OC(=O)Oc1cc2c(cc1C1CCN(C(=O)OC(C)(C)C)CC1)n(C1CCCC1)c1nc(=O)c3c(Br)cccc3n21` [Compound 33a] here?
A: Its Kd is 157 nM.

Q: For `Cc1ncsc1-c1ccc([C@H](C[C@@H](C)CN2CCC(c3ccc4c(c3)n(C3CCCC3)c3nc(=O)c5c(Br)cccc5n43)CC2)NC(=O)[C@@H]2C[C@@H](O)CN2C(=O)[C@@H](NC(=O)C2(F)CC2)C(C)(C)C)cc1` [Compound 42u], which DC50 [2] is on record?
A: Its DC50 is 0.3 nM.

Q: What about the DC50 [3] of the same molecule?
A: The DC50 was 0.7 nM.

Q: Which results are given for `Cc1ncsc1-c1ccc([C@H](CO[C@@H](CN2CCC(c3ccc4c(c3)n(C3CCCC3)c3nc(=O)c5c(Br)cccc5n43)CC2)C2CC2)NC(=O)[C@@H]2C[C@@H](O)CN2C(=O)[C@@H](NC(=O)C2(F)CC2)C(C)(C)C)cc1` [Compound 42v]?
A: DC50 [2]: 11 nM; DC50 [3]: > 833 nM

Q: What does the source list for `CCOC(=O)c1ncsc1-c1ccc([C@H](CCCN2CCC(c3ccc4c(c3)n(C3CCCC3)c3nc(=O)c5c(Br)cccc5n43)CC2)NC(=O)[C@@H]2C[C@@H](O)CN2C(=O)[C@@H](NC(=O)C2(F)CC2)C(C)(C)C)cc1` [Compound 42w]?
A: DC50 [2]: 11 nM; DC50 [3]: 36 nM

Q: Which results are given for `Cc1ncsc1-c1ccc([C@H](CCCN2CCC(c3ccc4c(c3)n(C3CCCC3)c3nc(=O)c5c(N)cccc5n43)CC2)NC(=O)[C@@H]2C[C@@H](O)CN2C(=O)[C@@H](NC(=O)C2(F)CC2)C(C)(C)C)cc1` [Compound 42x]?
A: DC50 [2]: 0.3 nM; DC50 [3]: 2 nM

Q: `Cc1ncsc1-c1ccc([C@H](CO[C@H](C)CN2CCC(c3ccc4c(c3)n(C3CCCC3)c3nc(=O)c5c(Br)cccc5n43)CC2)NC(=O)[C@@H]2C[C@@H](O)CN2C(=O)[C@@H](NC(=O)C2(N(C)C)CC2)C(C)(C)C)cc1` [Compound 42y] was tested. Which DC50 [2] did it give?
A: The DC50 was 6 nM.

Q: What about the DC50 [3] of the same molecule?
A: The DC50 was 101 nM.

Q: Which results are given for `Cc1ncsc1-c1ccc([C@H](CCCN2CCC(c3cc4c(cc3OCCOCCN3CCOCC3)n3c5cccc(Br)c5c(=O)nc3n4C3CCCC3)CC2)NC(=O)[C@@H]2C[C@@H](O)CN2C(=O)[C@@H](NC(=O)C2(F)CC2)C(C)(C)C)cc1` [Compound 42z]?
A: DC50 [2]: 20 nM; DC50 [3]: 41 nM
